Laboratory results taken from patent US12478001B2, “Plant activator containing amino acid or salt thereof, and oligosaccharide, and use thereof” (priority 2019, dated 2025).

Test system: frill lettuce
Assay: Frill lettuce hydroponic cultivation test, root dry weight
Format: in vivo
Settings: hydroponics, 60 days cultivation, percentage with non-added group root dry weight as 100%, vitalizer 50-100 ppm by mass
Description: Each oligosaccharide prepared in [1. Preparation of oligosaccharide] and each amino acid prepared in [2. Preparation of amino acids] were dissolved in water while stirring with a stirrer in a compositional ratio to 1000 times the plant vitalizer concentration (ppm by mass) in Comparative Examples 1 and 2 and Examples 1 and 6 to 7 listed in the tables, after which the bacteria were removed with a 0.45 μm filter, to obtain plant vitalizer stock solutions.
In the test groups, 150 g of each of the plant vitalizer stock solutions under different conditions was added to and dispersed in 150 L of culture solution prepared for hydroponics (1000-fold dilution), and cultivation was started for each of 120 varieties at a temperature of 20 to 22° C. Cultivation was carried out for a total of 60 days, with a total of 5 times every week after beginning further addition of 150 g of plant vitalizer stock solution, and the root dry weights of the frill lettuce were measured.
The root dry weights were determined by cutting the root parts, drying the cut roots with a constant temperature dryer for 12 hours at 50° C., and then measuring the weights.
The root dry weights in Table 1 are percentages (%) with respect to 100% as the root dry weight in the non-added group without plant vitalizer addition.

SMILES | Increase in root dry weight with respect to non-added group (measured n = 5) [%]
NCC(=O)O [Comparative Example 2, Glycine] | 112

Test system: komatsuna
Assay: Measurement of komatsuna fresh weight after foliar application
Format: in vivo
Settings: komatsuna raised 34 days in soil, vitalizer applied to leaves at one-week intervals; control = Comparative Example 11 without vitalizer
Description: Each oligosaccharide prepared in [1. […] Each stock solution was diluted 1000-fold with water and used for the following cultivation test. A sample was prepared with […] Corp.) as the plant crop, organic vegetable soil (Hirota Shoten) as the soil and Shin-Taki Organic Liquid Fertilizer #3 (Taki Chemical Co., Ltd.) as the fertilizer. After sprouting the plants on filter paper, they were planted into a 25-hole connected pot (280×280 mm overall, with holes of 50×50×50 mm) containing culturing soil and fertilizer.

SMILES | Fresh weight (compared to control as 100) [%]
N[C@@H](Cc1c[nH]cn1)C(=O)O [compound 12, Histidine] | 92
NCC(=O)O [compound 13, Glycine] | 102
N[C@@H](CCC(=O)[O-])C(=O)[O-].[Na+].[Na+] [compound 14, Sodium glutamate] | 89

Test system: komatsuna
Assay: Evaluation of komatsuna elicitor activity (glucanase activity measurement)
Format: in vivo
Settings: komatsuna grown 6 days on MS agar medium containing plant vitalizer; glucanase activity (Abs590) of leaf extract; control = Comparative Example 3 without vitalizer
Description: (i) The plant is sampled and pretreated; (ii) a calibration curve is drawn using BSA as the protein standard (using absorbance at a wavelength (600 nm) in a dye binding method); (iii) the protein concentration of the specimen prepared in (i) is measured; (iv) the glucanase activity of the specimen prepared in (i) is measured.
Each oligosaccharide prepared in [1. Preparation of oligosaccharide] and each amino acid prepared in [2. […] Each stock solution was diluted 1000-fold with water and used for the following cultivation test.
Murashige and Skoog (MS) agar medium was used for raising of the komatsuna.
High-pressure steam sterilized MS medium was transferred into a plant box on a clean bench and thoroughly cooled, and then komatsuna (“Wakami”, Sakata Seed Corp.) were seeded in a count of 10 each. They were then grown for 6 days with long-day conditions of 24 hours in a lighted room at 22° C.
After adding 300 μl of the prepared protein extraction buffer into a 1.5 ml tube equipped with a Biomasher (Nippi, Inc.), leaves (plant body) sampled and cut with scissors to approximately 4×4 mm were added. The procedure was carried out 5 times for each sample. A stirring rod was then rotated by hand to break up the plant body until the solid portion was generally no longer visible. Centrifugal separation was carried out under conditions of 15,000×g, 10 minutes, 4° C., and the aqueous layer was collected into a fresh 1.5 ml tube to prepare a liquid extract.
A 2 mg/ml portion of bovine serum albumin (BSA) of known purity was serially diluted (1/2, 1/4, 1/8, 1/16, 1/32 and 1/64 dilution) to prepare standards. The prepared standards were used to determine the average absorbance at 600 nm (Abs600), and a calibration curve was drawn (n=3). After injecting 300 μl of Coomassie Brilliant Blue (CBB) solution into a 96-well plate, 6 μl of the prepared liquid extract was added. The Abs600 was then measured. The blank used was MilliQ. The absorbance of the liquid extract was fitted onto the calibration curve drawn with the 2 mg/ml of serially diluted BSA, to determine the protein concentration.
Dilution was carried out to a constant liquid extract concentration using the determined values, and the diluted extract was used for the following glucanase activity measurement.
In a 1.5 ml tube there were mixed 100 μl of a B-HS substrate solution prepared by suspending one tablet of B-HS reagent (Megazyme Co.) in 10 ml of MilliQ, 50 μl of 0.2 M phosphate buffer solution (pH 6.0) and 50 μl of the previously prepared diluted solution or ultrapure water (blank), to prepare samples for each of the Comparative Examples and Examples. Enzyme reaction was conducted for 1 hour and 30 minutes in a water bath at 30° C., shaking the sample well every 15 minutes. A 100 μl portion of 0.2 N NaOH as reaction stop solution (total: 300 μl) was added to stop the reaction.

SMILES | Elicitor activity (compared to control as 100)
NCCCC[C@H](N)C(=O)O [Comparative Example 6, Lysine] | 104
NCC(=O)O [compound 5, Glycine] | 141
N[C@@H](CCC(=O)[O-])C(=O)[O-].[Na+].[Na+] [compound 7, Sodium glutamate] | 82
N[C@@H](Cc1c[nH]cn1)C(=O)O [compound 8, Histidine] | 89
C[C@H](N)C(=O)O [compound 9, Alanine] | 72
N=C(N)NCCC[C@H](N)C(=O)O [compound 10, Arginine] | 79
